Assay results published in US12486253B2, “Therapeutics for the degradation of mutant BRAF” (C4 THERAPEUTICS, INC., priority 2021, dated 2025).
Like-named read-outs stand apart in the source and are kept apart here.

Biological target: BRAF V600E (Homo sapiens, UniProt P15056, V600E)
Assay: HiBiT cellular BRAF^V600E degradation assay
Type: cell-based
Details: for DC50: concentration at which 50% of total cellular BRAF^V600E is degraded; for Emax: read-out: HiBit 24 h Emax
[1] = A375.10 cells, 24 h, residual protein remaining in the cell

Sequence of BRAF V600E (P15056 whole entry V600E): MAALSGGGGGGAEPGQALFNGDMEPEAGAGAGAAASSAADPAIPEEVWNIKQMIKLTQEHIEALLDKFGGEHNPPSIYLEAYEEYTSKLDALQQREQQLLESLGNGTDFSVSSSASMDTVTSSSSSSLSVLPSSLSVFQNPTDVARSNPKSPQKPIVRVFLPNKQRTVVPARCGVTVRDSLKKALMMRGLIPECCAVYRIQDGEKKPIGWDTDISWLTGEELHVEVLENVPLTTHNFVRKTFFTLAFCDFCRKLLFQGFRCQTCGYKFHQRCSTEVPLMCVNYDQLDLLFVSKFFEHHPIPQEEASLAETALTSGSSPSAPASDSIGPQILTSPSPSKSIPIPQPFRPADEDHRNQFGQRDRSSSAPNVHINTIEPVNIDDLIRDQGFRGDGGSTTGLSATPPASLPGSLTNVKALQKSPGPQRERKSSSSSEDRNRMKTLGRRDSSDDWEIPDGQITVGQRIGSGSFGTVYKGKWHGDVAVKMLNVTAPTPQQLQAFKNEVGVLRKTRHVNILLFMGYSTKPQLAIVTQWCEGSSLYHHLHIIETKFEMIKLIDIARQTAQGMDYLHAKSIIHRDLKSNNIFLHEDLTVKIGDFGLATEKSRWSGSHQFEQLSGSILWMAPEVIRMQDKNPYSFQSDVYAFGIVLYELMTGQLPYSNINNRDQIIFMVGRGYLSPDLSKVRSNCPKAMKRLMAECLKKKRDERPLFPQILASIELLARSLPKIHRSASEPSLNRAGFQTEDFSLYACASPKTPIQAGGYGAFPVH

SMILES: CCN(C)S(=O)(=O)Nc1ccc(F)c(Oc2ccc3ncn(C4CCC5(CC4)CCN(C(=O)CN4CCC(c6ccc(NC7CCC(=O)NC7=O)cc6F)CC4)CC5)c(=O)c3c2)c1C#N (centres unmarked) [Example 30, 9-[6-[2-cyano-3-[[ethyl(methyl)sulfamoyl]amino]-6-fluorophenoxy]-4-oxoquinazolin-3-yl]-3-[2-[4-[4-[(2,6-dioxopiperidin-3-yl)amino]-2-fluorophenyl]piperidin-1-yl]acetyl]-3-azaspiro[5.5]undecane]
- DC50 (A375.10 cells, 24 h): 16.4 nM
- Emax [1]: 12.1%

SMILES: CCN(C)S(=O)(=O)Nc1ccc(F)c(Oc2ccc3ncn(CC4CC5(CCN(C(=O)CN6CCC(c7ccc(NC8CCC(=O)NC8=O)cc7F)CC6)CC5)C4)c(=O)c3c2)c1C#N (centres unmarked) [Example 31, 6-[2-cyano-3-[[ethyl(methyl)sulfamoyl]amino]-6-fluorophenoxy]-3-[[7-[2-[4-[4-[(2,6-dioxopiperidin-3-yl)amino]-2-fluorophenyl]piperidin-1-yl]acetyl]-7-azaspiro[3.5]nonan-2-yl]methyl]-4-oxoquinazoline]
- DC50 (A375.10 cells, 24 h): 46.9 nM
- Emax [1]: 11.6%

SMILES: CCN(C)S(=O)(=O)Nc1ccc(F)c(Oc2ccc3ncn(C4CCC5(CC4)CCN(C(=O)CN4CCC(c6ccc(NC7CCC(=O)NC7=O)cc6F)CC4)C5)c(=O)c3c2)c1C#N (centres unmarked) [Example 32, 6-[2-cyano-3-[[ethyl(methyl)sulfamoyl]amino]-6-fluorophenoxy]-3-[2-[2-[4-[4-[(2,6-dioxopiperidin-3-yl)amino]-2-fluorophenyl]piperidin-1-yl]acetyl]-2-azaspiro[4.5]decan-8-yl]-4-oxoquinazoline]
- DC50 (A375.10 cells, 24 h): 40.3 nM
- Emax [1]: 11.4%

SMILES: CCN(C)S(=O)(=O)Nc1ccc(F)c(Oc2ccc3ncn([C@H]4[C@@H]5CN(c6ccc(C(=O)NC7CCN(c8ccc(NC9CCC(=O)NC9=O)cc8F)CC7)cc6)C[C@@H]54)c(=O)c3c2)c1C#N (some centres unmarked) [Example 35, 4-[6-[6-[2-cyano-3-[[ethyl(methyl)sulfamoyl]amino]-6-fluorophenoxy]-4-oxoquinazolin-3-yl]-3-azabicyclo[3.1.0]hexan-3-yl]-N-[1-[4-[(2,6-dioxopiperidin-3-yl)amino]-2-fluorophenyl]piperidin-4-yl]benzamide]
- DC50 (A375.10 cells, 24 h): 6.82 nM
- Emax [1]: 13.6%

SMILES: CCN(C)S(=O)(=O)Nc1ccc(F)c(Oc2ccc3ncn(CC4COC5(CCN(C(=O)CN6CCC(c7ccc(NC8CCC(=O)NC8=O)cc7F)CC6)CC5)C4)c(=O)c3c2)c1C#N (centres unmarked) [Example 36, 3-[[6-[2-cyano-3-[[ethyl(methyl)sulfamoyl]amino]-6-fluorophenoxy]-4-oxoquinazolin-3-yl]methyl]-8-[2-[4-[4-[(2,6-dioxopiperidin-3-yl)amino]-2-fluorophenyl]piperidin-1-yl]acetyl]-1-oxa-8-azaspiro[4.5]decane]
- DC50 (A375.10 cells, 24 h): 51.3 nM
- Emax [1]: 10.3%

SMILES: CCN(C)S(=O)(=O)Nc1ccc(F)c(Oc2ccc3ncn(C4CC5(CCN(C(=O)NC6CCN(c7ccc(NC8CCC(=O)NC8=O)cc7F)CC6)CC5)C4)c(=O)c3c2)c1C#N (centres unmarked) [Example 37, 2-[6-[2-cyano-3-[[ethyl(methyl)sulfamoyl]amino]-6-fluorophenoxy]-4-oxoquinazolin-3-yl]-N-[1-[4-[(2,6-dioxopiperidin-3-yl)amino]-2-fluorophenyl]piperidin-4-yl]-7-azaspiro[3.5]nonane-7-carboxamide]
- DC50 (A375.10 cells, 24 h): 48.4 nM
- Emax: 16.2%

SMILES: CCN(C)S(=O)(=O)Nc1ccc(F)c(Oc2ccc3ncn(C4COC5(CCN(C(=O)NC6CCN(c7ccc(NC8CCC(=O)NC8=O)cc7F)CC6)CC5)C4)c(=O)c3c2)c1C#N (centres unmarked) [Example 38, 3-[6-[2-cyano-3-[[ethyl(methyl)sulfamoyl]amino]-6-fluorophenoxy]-4-oxoquinazolin-3-yl]-N-[1-[4-[(2,6-dioxopiperidin-3-yl)amino]-2-fluorophenyl]piperidin-4-yl]-1-oxa-8-azaspiro[4.5]decane-8-carboxamide]
- DC50 (A375.10 cells, 24 h): 36 nM
- Emax: 11.4%

SMILES: CCN(C)S(=O)(=O)Nc1ccc(F)c(Oc2ccc3ncn(C4CC5(CCN(C(=O)[C@H]6C[C@H](N7CC(c8ccc(NC9CCC(=O)NC9=O)cc8F)C7)C6)CC5)C4)c(=O)c3c2)c1C#N (some centres unmarked) [Example 39, 6-[2-cyano-3-[[ethyl(methyl)sulfamoyl]amino]-6-fluorophenoxy]-3-[7-[3-[3-[4-[(2,6-dioxopiperidin-3-yl)amino]-2-fluorophenyl]azetidin-1-yl]cyclobutanecarbonyl]-7-azaspiro[3.5]nonan-2-yl]-4-oxoquinazoline]
- DC50 (A375.10 cells, 24 h): 27.5 nM
- Emax [1]: 15.7%

SMILES: CCN(C)S(=O)(=O)Nc1ccc(F)c(Oc2ccc3ncn([C@H]4COC5(CCN(C(=O)CN6CCC(c7ccc(N[C@@H]8CCC(=O)NC8=O)cc7F)CC6)CC5)C4)c(=O)c3c2)c1C#N [Example 42, (3R)-3-[6-[2-cyano-3-[[ethyl(methyl)sulfamoyl]amino]-6-fluorophenoxy]-4-oxoquinazolin-3-yl]-8-[2-[4-[4-[[(3R)-2,6-dioxopiperidin-3-yl]amino]-2-fluorophenyl]piperidin-1-yl]acetyl]-1-oxa-8-azaspiro[4.5]decane]
- DC50 (A375.10 cells, 24 h): 22.1 nM
- Emax [1]: 8.88%

SMILES: CCN(C)S(=O)(=O)Nc1ccc(F)c(Oc2ccc3ncn([C@H]4COC5(CCN(C(=O)CN6CCC(c7ccc(N[C@H]8CCC(=O)NC8=O)cc7F)CC6)CC5)C4)c(=O)c3c2)c1C#N [Example 43, (3R)-3-[6-[2-cyano-3-[[ethyl(methyl)sulfamoyl]amino]-6-fluorophenoxy]-4-oxoquinazolin-3-yl]-8-[2-[4-[4-[[(3S)-2,6-dioxopiperidin-3-yl]amino]-2-fluorophenyl]piperidin-1-yl]acetyl]-1-oxa-8-azaspiro[4.5]decane]
- DC50 (A375.10 cells, 24 h): 23.7 nM
- Emax [1]: 9.95%

SMILES: CCN(C)S(=O)(=O)Nc1ccc(F)c(Oc2ccc3ncn([C@@H]4CCC5(CCN(C(=O)CN6CCC(c7ccc(N[C@@H]8CCC(=O)NC8=O)cc7F)CC6)CC5)C4)c(=O)c3c2)c1C#N [Example 44, 6-[2-cyano-3-[[ethyl(methyl)sulfamoyl]amino]-6-fluorophenoxy]-3-[(3R)-8-[2-[4-[4-[[(3R)-2,6-dioxopiperidin-3-yl]amino]-2-fluorophenyl]piperidin-1-yl]acetyl]-8-azaspiro[4.5]decan-3-yl]-4-oxoquinazoline]
- DC50 (A375.10 cells, 24 h): 25.1 nM
- Emax [1]: 14.4%

SMILES: CCN(C)S(=O)(=O)Nc1ccc(F)c(Oc2ccc3ncn([C@@H]4CCC5(CCN(C(=O)CN6CCC(c7ccc(N[C@H]8CCC(=O)NC8=O)cc7F)CC6)CC5)C4)c(=O)c3c2)c1C#N [Example 45, 6-[2-cyano-3-[[ethyl(methyl)sulfamoyl]amino]-6-fluorophenoxy]-3-[(3R)-8-[2-[4-[4-[[(3S)-2,6-dioxopiperidin-3-yl]amino]-2-fluorophenyl]piperidin-1-yl]acetyl]-8-azaspiro[4.5]decan-3-yl]-4-oxoquinazoline]
- DC50 (A375.10 cells, 24 h): 18.7 nM
- Emax [1]: 11.3%

SMILES: CCN(C)S(=O)(=O)Nc1ccc(F)c(Oc2ccc3ncn([C@H]4COC5(CCN(C(=O)CN6CCC(c7ccc(C8CCC(=O)NC8=O)cc7F)CC6)CC5)C4)c(=O)c3c2)c1C#N (stereo partly drawn) [Example 46, (3R)-3-[6-[2-cyano-3-[[ethyl(methyl)sulfamoyl]amino]-6-fluorophenoxy]-4-oxoquinazolin-3-yl]-8-[2-[4-[4-(2,6-dioxopiperidin-3-yl)-2-fluorophenyl]piperidin-1-yl]acetyl]-1-oxa-8-azaspiro[4.5]decane]
- DC50 (A375.10 cells, 24 h): 29.9 nM
- Emax [1]: 13.4%
